According to patent publication US11649255B2, “Indazoles as hematopoietic progenitor kinase 1 (HPK1) inhibitors and methods using same” (1st Biotherapeutics, Inc., priority 2020, dated 2023):

Molecular target: recombinant human HPK1 (Homo sapiens (Human), UniProt Q92918)
Experiment: HPK1 kinase assay (ADP-Glo)
Type: biochemical
Conditions: 25 μM ATP, MBP substrate
Procedure, shortened: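 Activity was read as ADP formed, detected by ADP-Glo luminescence after the reaction of 5 ng recombinant human HPK1 with MBP and ATP (stocks 0.5 μg/μl and 25 μM) for 40 min at 30 °C. Buffer was Tris pH 7.5 with MgCl2, BSA and DTT, with compound in 0.5% DMSO. IC50 came from inhibition curves.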

recombinant human HPK1, sequence (Q92918 whole entry): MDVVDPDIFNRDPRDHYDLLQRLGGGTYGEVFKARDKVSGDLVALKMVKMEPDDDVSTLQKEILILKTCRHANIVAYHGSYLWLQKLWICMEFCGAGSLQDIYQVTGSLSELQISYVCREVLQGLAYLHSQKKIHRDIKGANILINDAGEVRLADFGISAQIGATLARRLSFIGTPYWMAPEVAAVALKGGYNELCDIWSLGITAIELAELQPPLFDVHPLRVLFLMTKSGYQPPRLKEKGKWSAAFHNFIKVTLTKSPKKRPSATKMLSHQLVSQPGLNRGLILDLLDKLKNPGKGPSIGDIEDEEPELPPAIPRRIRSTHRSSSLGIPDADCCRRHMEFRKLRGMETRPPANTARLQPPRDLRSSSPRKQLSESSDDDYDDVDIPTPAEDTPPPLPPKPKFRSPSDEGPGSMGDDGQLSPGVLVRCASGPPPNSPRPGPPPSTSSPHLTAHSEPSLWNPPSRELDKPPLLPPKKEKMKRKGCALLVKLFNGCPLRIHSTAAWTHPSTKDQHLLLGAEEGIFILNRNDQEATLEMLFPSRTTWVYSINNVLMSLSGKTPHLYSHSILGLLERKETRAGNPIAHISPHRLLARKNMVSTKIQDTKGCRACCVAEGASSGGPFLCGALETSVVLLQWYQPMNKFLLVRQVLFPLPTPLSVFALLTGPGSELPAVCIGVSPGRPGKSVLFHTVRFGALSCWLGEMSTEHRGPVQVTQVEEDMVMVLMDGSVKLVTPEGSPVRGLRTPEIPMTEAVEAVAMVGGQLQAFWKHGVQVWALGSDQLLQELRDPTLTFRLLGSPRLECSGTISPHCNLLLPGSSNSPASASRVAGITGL

Row | IC50 [nM] | Compound
1 | < 100 | CN(C)C(=O)CN(C)c1c(F)c(Cl)c(-c2ccc3nc(NC(=O)[C@@H]4C[C@@H]4F)sc3c2)c2cn[nH]c12 [Example 100, (1S,2S)-N-(6-(5-chloro-7-((2-(dimethylamino)-2-oxoethyl)(methyl)amino)-6-fluoro-1H-indazol-4-yl)benzo[d]thiazol-2-yl)-2-fluorocyclopropane-1-carboxamide]
2 | < 100 | CCOc1cc(C)c(-c2ccc3nc(NC(=O)[C@@H]4C[C@@H]4F)sc3c2)c2cn[nH]c12 [Example 101, (1S,2S)-N-(6-(7-ethoxy-5-methyl-1H-indazol-4-yl)benzo[d]thiazol-2-yl)-2-fluorocyclopropane-1-carboxamide]
3 | < 100 | CCc1c(F)c(N(C)C)c2[nH]ncc2c1-c1ccc2nc(NC(=O)[C@@H]3C[C@@H]3F)sc2c1 [Example 102, (1S,2S)-N-(6-(7-(dimethylamino)-5-ethyl-6-fluoro-1H-indazol-4-yl)benzo[d]thiazol-2-yl)-2-fluorocyclopropane-1-carboxamide]
4 | < 100 | CCc1c(F)c(SC)c2[nH]ncc2c1-c1ccc2nc(NC(=O)[C@@H]3C[C@@H]3F)sc2c1 [Example 103, (1S,2S)-N-(6-(5-ethyl-6-fluoro-7-(methylthio)-1H-indazol-4-yl)benzo[d]thiazol-2-yl)-2-fluorocyclopropane-1-carboxamide]
5 | < 100 | CCc1c(F)c(F)c2[nH]ncc2c1-c1ccc2nc(NC(=O)[C@@H]3C[C@@H]3F)sc2c1 [Example 106, (1S,2S)-N-(6-(5-ethyl-6,7-difluoro-1H-indazol-4-yl)benzo[d]thiazol-2-yl)-2-fluorocyclopropane-1-carboxamide]
6 | < 100 | CC(=O)Nc1c(F)c(Cl)c(-c2ccc3nc(NC(=O)[C@@H]4C[C@@H]4F)sc3c2)c2cn[nH]c12 [Example 108, (1S,2S)-N-(6-(7-acetamido-5-chloro-6-fluoro-1H-indazol-4-yl)benzo[d]thiazol-2-yl)-2-fluorocyclopropane-1-carboxamide]
7 | < 100 | Cc1c(F)c(F)c2[nH]ncc2c1-c1ccc2nc(NC(=O)[C@@H]3C[C@@H]3F)sc2c1 [Example 109, (1S,2S)-N-(6-(6,7-difluoro-5-methyl-1H-indazol-4-yl)benzo[d]thiazol-2-yl)-2-fluorocyclopropane-1-carboxamide]
8 | 101 to 500 | Cc1c(F)c(S(C)(=O)=O)c2[nH]ncc2c1-c1ccc2nc(NC(=O)[C@@H]3C[C@@H]3F)sc2c1 [Example 112, (1S,2S)-2-fluoro-N-(6-(6-fluoro-5-methyl-7-(methylsulfonyl)-1H-indazol-4-yl)benzo[d]thiazol-2-yl)cyclopropane-1-carboxamide]
9 | < 100 | CC(=O)Nc1c(F)c(C)c(-c2ccc3nc(NC(=O)[C@@H]4C[C@@H]4F)sc3c2)c2cn[nH]c12 [Example 113, (1S,2S)-N-(6-(7-acetamido-6-fluoro-5-methyl-1H-indazol-4-yl)benzo[d]thiazol-2-yl)-2-fluorocyclopropane-1-carboxamide]
10 | 101 to 500 | CN(Nc1c(F)c(Cl)c(-c2ccc3nc(NC(=O)[C@@H]4C[C@@H]4F)sc3c2)c2cn[nH]c12)C(=O)OC(C)(C)C [Example 114, tert-butyl 2-(5-chloro-6-fluoro-4-(2-((1S,2S)-2-fluorocyclopropane-1-carboxamido)benzo[d]thiazol-6-yl)-1H-indazol-7-yl)-1-methylhydrazine-1-carboxylate]
11 | < 100 | CNNc1c(F)c(Cl)c(-c2ccc3nc(NC(=O)[C@@H]4C[C@@H]4F)sc3c2)c2cn[nH]c12 [Example 115, (1S,2S)-N-(6-(5-chloro-6-fluoro-7-(2-methylhydrazineyl)-1H-indazol-4-yl)benzo[d]thiazol-2-yl)-2-fluorocyclopropane-1-carboxamide]
12 | < 100 | COC(=O)c1c(F)c(C)c(-c2ccc3nc(NC(=O)[C@@H]4C[C@@H]4F)sc3c2)c2cn[nH]c12 [Example 116, methyl 6-fluoro-4-(2-((1S,2S)-2-fluorocyclopropane-1-carboxamido)benzo[d]thiazol-6-yl)-5-methyl-1H-indazole-7-carboxylate]
13 | < 100 | CSc1c(F)c(F)c2[nH]ncc2c1-c1ccc2nc(NC(=O)[C@@H]3C[C@@H]3F)sc2c1 [Example 117, (1S,2S)-N-(6-(6,7-difluoro-5-(methylthio)-1H-indazol-4-yl)benzo[d]thiazol-2-yl)-2-fluorocyclopropane-1-carboxamide 2,2,2-trifluoroacetate]
14 | 101 to 500 | CS(=O)(=O)c1c(F)c(Cl)c(-c2ccc3nc(NC(=O)[C@@H]4C[C@@H]4F)sc3c2)c2cn[nH]c12 [Example 119, (1S,2S)-N-(6-(5-chloro-6-fluoro-7-(methylsulfonyl)-1H-indazol-4-yl)benzo[d]thiazol-2-yl)-2-fluorocyclopropane-1-carboxamide]
15 | < 100 | CC(=O)N(C)c1c(F)c(C)c(-c2ccc3nc(NC(=O)[C@@H]4C[C@@H]4F)sc3c2)c2cn[nH]c12 [Example 120, (1S,2S)-2-fluoro-N-(6-(6-fluoro-5-methyl-7-(N-methylacetamido)-1H-indazol-4-yl)benzo[d]thiazol-2-yl)cyclopropane-1-carboxamide]
16 | > 1000 | O=C(O)c1c(F)c(Cl)c(-c2ccc3nc(NC(=O)[C@@H]4C[C@@H]4F)sc3c2)c2cn[nH]c12 [Example 121, 5-chloro-6-fluoro-4-(2-((1S,2S)-2-fluorocyclopropane-1-carboxamido)benzo[d]thiazol-6-yl)-1H-indazole-7-carboxylic acid]
17 | < 100 | COC(=O)c1c(F)c(Cl)c(-c2ccc3nc(NC(=O)[C@@H]4C[C@@H]4F)sc3c2)c2cn[nH]c12 [Example 122, methyl 5-chloro-6-fluoro-4-(2-((1S,2S)-2-fluorocyclopropane-1-carboxamido)benzo[d]thiazol-6-yl)-1H-indazole-7-carboxylate]
18 | > 1000 | Cc1c(F)c(C(=O)O)c2[nH]ncc2c1-c1ccc2nc(NC(=O)[C@@H]3C[C@@H]3F)sc2c1 [Example 124, 6-fluoro-4-(2-((1S,2S)-2-fluorocyclopropane-1-carboxamido)benzo[d]thiazol-6-yl)-5-methyl-1H-indazole-7-carboxylic acid]
19 | < 100 | O=C(Nc1nc2ccc(-c3c(Cl)c(F)c(F)c4[nH]ncc34)cc2s1)[C@@H]1C[C@@H]1F [Example 126, (1S,2S)-N-(6-(5-chloro-6,7-difluoro-1H-indazol-4-yl)benzo[d]thiazol-2-yl)-2-fluorocyclopropane-1-carboxamide]
20 | < 100 | CNC(=O)c1c(F)c(Cl)c(-c2ccc3nc(NC(=O)[C@@H]4C[C@@H]4F)sc3c2)c2cn[nH]c12 [Example 127, 5-chloro-6-fluoro-4-(2-((1S,2S)-2-fluorocyclopropane-1-carboxamido)benzo[d]thiazol-6-yl)-N-methyl-1H-indazole-7-carboxamide]
21 | 101 to 500 | CC(=O)c1c(F)c(Cl)c(-c2ccc3nc(NC(=O)[C@@H]4C[C@@H]4F)sc3c2)c2cn[nH]c12 [Example 128, (1S,2S)-N-(6-(7-acetyl-5-chloro-6-fluoro-1H-indazol-4-yl)benzo[d]thiazol-2-yl)-2-fluorocyclopropane-1-carboxamide]
22 | < 100 | CN(c1c(F)c(Cl)c(-c2ccc3nc(NC(=O)[C@@H]4C[C@@H]4F)sc3c2)c2cn[nH]c12)C1CNC1 [Example 129, (1S,2S)-N-(6-(7-(azetidin-3-yl(methyl)amino)-5-chloro-6-fluoro-1H-indazol-4-yl)benzo[d]thiazol-2-yl)-2-fluorocyclopropane-1-carboxamide]
23 | < 100 | CN(C)c1c(F)c(C(F)(F)F)c(-c2ccc3nc(NC(=O)[C@@H]4C[C@@H]4F)sc3c2)c2cn[nH]c12 [Example 130, (1S,2S)-N-(6-(7-(dimethylamino)-6-fluoro-5-(trifluoromethyl)-1H-indazol-4-yl)benzo[d]thiazol-2-yl)-2-fluorocyclopropane-1-carboxamide]
24 | 101 to 500 | CC(=O)c1c(F)c(C)c(-c2ccc3nc(NC(=O)[C@@H]4C[C@@H]4F)sc3c2)c2cn[nH]c12 [Example 131, (1S,2S)-N-(6-(7-acetyl-6-fluoro-5-methyl-1H-indazol-4-yl)benzo[d]thiazol-2-yl)-2-fluorocyclopropane-1-carboxamide]
25 | 101 to 500 | CNC(=O)c1c(F)c(C)c(-c2ccc3nc(NC(=O)[C@@H]4C[C@@H]4F)sc3c2)c2cn[nH]c12 [Example 132, 6-fluoro-4-(2-((1S,2S)-2-fluorocyclopropane-1-carboxamido)benzo[d]thiazol-6-yl)-N,5-dimethyl-1H-indazole-7-carboxamide]
26 | < 100 | CCN(C)c1c(F)c(Cl)c(-c2ccc3nc(NC(=O)[C@@H]4C[C@@H]4F)sc3c2)c2cn[nH]c12 [Example 133, (1S,2S)-N-(6-(5-chloro-7-(ethyl(methyl)amino)-6-fluoro-1H-indazol-4-yl)benzo[d]thiazol-2-yl)-2-fluorocyclopropane-1-carboxamide]
27 | > 1000 | NC(=O)c1c(F)c(Cl)c(-c2ccc3nc(NC(=O)[C@@H]4C[C@@H]4F)sc3c2)c2cn[nH]c12 [Example 135, 5-chloro-6-fluoro-4-(2-((1S,2S)-2-fluorocyclopropane-1-carboxamido)benzo[d]thiazol-6-yl)-1H-indazole-7-carboxamide]
28 | < 100 | CCc1c(F)c(N(C)CC)c2[nH]ncc2c1-c1ccc2nc(NC(=O)[C@@H]3C[C@@H]3F)sc2c1 [Example 136, (1S,2S)-N-(6-(5-ethyl-7-(ethyl(methyl)amino)-6-fluoro-1H-indazol-4-yl)benzo[d]thiazol-2-yl)-2-fluorocyclopropane-1-carboxamide]
29 | < 100 | CCN(C)c1c(F)c(SC)c(-c2ccc3nc(NC(=O)[C@@H]4C[C@@H]4F)sc3c2)c2cn[nH]c12 [Example 138, (1S,2S)-N-(6-(7-(ethyl(methyl)amino)-6-fluoro-5-(methylthio)-1H-indazol-4-yl)benzo[d]thiazol-2-yl)-2-fluorocyclopropane-1-carboxamide]
